Tested on: Rattus norvegicus
Experiment: Anti-hypertensive activity in fructose fed-induced hypertensive rat assessed as increase in ionized calcium level in serum at 20 mg/kg administered once daily for 28 days
Format: functional
Settings: time 28 day

With `C=C1/C(=C\C=C2/CCC[C@]3(C)[C@@H]([C@H](C)CCCC(C)(C)O)CC[C@@H]23)C[C@@H](O)C[C@@H]1O` [CALCITRIOL] the Activity was 1.44 mM.

From ChEMBL document CHEMBL5625177, “Recent advance of small-molecule drugs for clinical treatment of osteoporosis: A review” (Eur J Med Chem, 2023)
